{"source": "patent US9884842B2", "about": "“Combretastatin analogs” (The Board of Trustees of the University of Arkansas, priority 2013, dated 2018)", "key": {"[1]": {"system": "PC-3", "assay": "NCI growth inhibition and cytotoxicity screen, Prostate Cancer panel", "conditions": "Homo sapiens"}, "[2]": {"system": "OVCAR-4", "assay": "NCI growth inhibition and cytotoxicity screen, Ovarian Cancer panel", "conditions": "Homo sapiens"}, "[3]": {"system": "MCF7", "assay": "NCI growth inhibition and cytotoxicity screen, Breast Cancer panel", "conditions": "Homo sapiens"}, "[4]": {"system": "SF-295", "assay": "NCI growth inhibition and cytotoxicity screen, CNS Cancer panel", "assay_type": "cell-based", "conditions": "Homo sapiens, Table 2, cell line SF-295 (CNS Cancer)"}, "[5]": {"system": "MDA-MB-231/ATCC", "assay": "NCI growth inhibition and cytotoxicity screen, Breast Cancer panel", "conditions": "Homo sapiens"}, "[6]": {"system": "SNB-19", "assay": "NCI growth inhibition and cytotoxicity screen, CNS Cancer panel", "conditions": "Homo sapiens"}, "[7]": {"system": "LOX-IMVI", "assay": "NCI growth inhibition and cytotoxicity screen, Melanoma panel", "conditions": "Homo sapiens"}, "[8]": {"system": "OVCAR-5", "assay": "NCI growth inhibition and cytotoxicity screen, Ovarian Cancer panel", "conditions": "Homo sapiens"}, "[9]": {"system": "HCC-2998", "assay": "NCI growth inhibition and cytotoxicity screen, Colon Cancer panel", "conditions": "Homo sapiens"}, "[10]": {"system": "SNB-75", "assay": "NCI growth inhibition and cytotoxicity screen, CNS Cancer panel", "conditions": "Homo sapiens"}, "[11]": {"system": "MDA-MB-468", "assay": "cells", "conditions": "Homo sapiens"}, "[12]": {"system": "MALME-3M", "assay": "NCI growth inhibition and cytotoxicity screen, Melanoma panel", "conditions": "Homo sapiens"}, "[13]": {"system": "NCI-H522", "assay": "NCI growth inhibition and cytotoxicity screen, Lung Cancer panel", "assay_type": "cell-based", "conditions": "Homo sapiens, Table 2, cell line NCI-H522 (Lung Cancer)"}, "[14]": {"system": "U251", "assay": "NCI growth inhibition and cytotoxicity screen, CNS Cancer panel", "conditions": "Homo sapiens"}, "[15]": {"system": "SW-620", "assay": "NCI growth inhibition and cytotoxicity screen, Colon Cancer panel", "conditions": "Homo sapiens"}, "[16]": {"system": "SF-539", "assay": "NCI growth inhibition and cytotoxicity screen, CNS Cancer panel", "conditions": "Homo sapiens"}, "[17]": {"system": "K-562", "assay": "NCI growth inhibition and cytotoxicity screen, Leukemia panel", "conditions": "Homo sapiens"}, "[18]": {"system": "NCI-H226", "assay": "NCI growth inhibition and cytotoxicity screen, Lung Cancer panel", "conditions": "Homo sapiens"}, "[19]": {"system": "MOLT-4", "assay": "NCI growth inhibition and cytotoxicity screen, Leukemia panel", "conditions": "Homo sapiens"}, "[20]": {"system": "CCRF-CEM", "assay": "NCI growth inhibition and cytotoxicity screen, Leukemia panel", "conditions": "Homo sapiens"}, "[21]": {"system": "KM12", "assay": "NCI growth inhibition and cytotoxicity screen, Colon Cancer panel", "conditions": "Homo sapiens"}, "[22]": {"system": "HCT-15", "assay": "NCI growth inhibition and cytotoxicity screen, Colon Cancer panel", "conditions": "Homo sapiens"}, "[23]": {"system": "SK-MEL-5", "assay": "NCI growth inhibition and cytotoxicity screen, Melanoma panel", "conditions": "Homo sapiens"}, "[24]": {"system": "CAKI-1", "assay": "NCI growth inhibition and cytotoxicity screen, Renal Cancer panel", "conditions": "Homo sapiens"}, "[25]": {"system": "SK-MEL-2", "assay": "NCI growth inhibition and cytotoxicity screen, Melanoma panel", "conditions": "Homo sapiens"}, "[26]": {"system": "NCI-H23", "assay": "NCI growth inhibition and cytotoxicity screen, Lung Cancer panel", "conditions": "Homo sapiens"}, "[27]": {"system": "SK-OV-3", "assay": "NCI growth inhibition and cytotoxicity screen, Ovarian Cancer panel", "conditions": "Homo sapiens"}, "[28]": {"system": "ACHN", "assay": "NCI growth inhibition and cytotoxicity screen, Renal Cancer panel", "conditions": "Homo sapiens"}, "[29]": {"system": "UACC-257", "assay": "NCI growth inhibition and cytotoxicity screen, Melanoma panel", "conditions": "Homo sapiens"}, "[30]": {"system": "SN12C", "assay": "NCI growth inhibition and cytotoxicity screen, Renal Cancer panel", "conditions": "Homo sapiens"}, "[31]": {"system": "NCI-H322M", "assay": "NCI growth inhibition and cytotoxicity screen, Lung Cancer panel", "conditions": "Homo sapiens"}, "[32]": {"system": "HS 578T", "assay": "NCI growth inhibition and cytotoxicity screen, Breast Cancer panel", "conditions": "Homo sapiens"}, "[33]": {"conditions": "read-out: LC50 (the source's name)"}}}
{"molecule": "COc1cc(OC)cc(/C(C#N)=C/c2cnc3ccccc3c2)c1", "note": "[PNR-4-85, (Z)-3-(quinolin-3-yl)-2-(3,5-dimethoxyphenyl)acrylonitrile]", "values": [{"measurement": "GI50", "setting": "[1]; PC-3", "result": 0.506, "unit": "µM"}, {"measurement": "CC50", "setting": "[1]; PC-3, read-out: LC50", "result": "> 100", "unit": "µM"}, {"measurement": "GI50", "setting": "[2]; OVCAR-4", "result": 1.73, "unit": "µM"}, {"measurement": "CC50", "setting": "[2]; OVCAR-4, read-out: LC50", "result": "> 100", "unit": "µM"}, {"measurement": "GI50", "setting": "[3]; MCF7", "result": 0.333, "unit": "µM"}, {"measurement": "CC50", "setting": "[3]; MCF7, read-out: LC50", "result": "> 100", "unit": "µM"}, {"measurement": "GI50", "setting": "[4]", "result": 0.243, "unit": "µM"}, {"measurement": "CC50", "setting": "[4]; [33]", "result": "> 100", "unit": "µM"}, {"measurement": "GI50", "setting": "[5]; MDA-MB-231", "result": 1.15, "unit": "µM"}, {"measurement": "CC50", "setting": "[5]; MDA-MB-231, read-out: LC50", "result": "> 100", "unit": "µM"}, {"measurement": "GI50", "setting": "[6]; SNB-19", "result": 0.614, "unit": "µM"}, {"measurement": "CC50", "setting": "[6]; SNB-19, read-out: LC50", "result": "> 100", "unit": "µM"}, {"measurement": "GI50", "setting": "[7]", "result": 0.672, "unit": "µM"}, {"measurement": "CC50", "setting": "[7]; read-out: LC50", "result": "> 100", "unit": "µM"}, {"measurement": "GI50", "setting": "[8]; OVCAR-5", "result": 0.587, "unit": "µM"}, {"measurement": "CC50", "setting": "[8]; OVCAR-5, read-out: LC50", "result": "> 100", "unit": "µM"}, {"measurement": "GI50", "setting": "[9]; HCC 2998", "result": 1.45, "unit": "µM"}, {"measurement": "CC50", "setting": "[9]; HCC 2998, read-out: LC50", "result": "> 100", "unit": "µM"}, {"measurement": "GI50", "setting": "[10]; SNB-75", "result": 0.224, "unit": "µM"}, {"measurement": "CC50", "setting": "[10]; SNB-75, read-out: LC50", "result": "> 100", "unit": "µM"}, {"measurement": "GI50", "setting": "[11]; MDA-MB-468", "result": 0.217, "unit": "µM"}, {"measurement": "CC50", "setting": "[11]; MDA-MB-468, read-out: LC50", "result": "> 100", "unit": "µM"}, {"measurement": "GI50", "setting": "[12]", "result": 0.635, "unit": "µM"}, {"measurement": "CC50", "setting": "[12]; read-out: LC50", "result": "> 100", "unit": "µM"}, {"measurement": "GI50", "setting": "[13]", "result": 0.069, "unit": "µM"}, {"measurement": "CC50", "setting": "[13]; [33]", "result": "> 100", "unit": "µM"}, {"measurement": "GI50", "setting": "[14]; U-251", "result": 0.374, "unit": "µM"}, {"measurement": "CC50", "setting": "[14]; U-251, read-out: LC50", "result": "> 100", "unit": "µM"}, {"measurement": "GI50", "setting": "[15]; SW-620", "result": 0.352, "unit": "µM"}, {"measurement": "CC50", "setting": "[15]; SW-620, read-out: LC50", "result": "> 100", "unit": "µM"}, {"measurement": "GI50", "setting": "[16]; SF-539", "result": 0.289, "unit": "µM"}, {"measurement": "CC50", "setting": "[16]; SF-539, read-out: LC50", "result": "> 100", "unit": "µM"}, {"measurement": "GI50", "setting": "[17]; K562", "result": 0.243, "unit": "µM"}, {"measurement": "CC50", "setting": "[17]; K562, read-out: LC50", "result": "> 100", "unit": "µM"}, {"measurement": "GI50", "setting": "[18]; NCI-H226", "result": 62.2, "unit": "µM"}, {"measurement": "CC50", "setting": "[18]; NCI-H226, read-out: LC50", "result": "> 100", "unit": "µM"}, {"measurement": "GI50", "setting": "[19]; MOLT-4", "result": 0.378, "unit": "µM"}, {"measurement": "CC50", "setting": "[19]; MOLT-4, read-out: LC50", "result": "> 100", "unit": "µM"}, {"measurement": "GI50", "setting": "[20]", "result": 0.332, "unit": "µM"}, {"measurement": "CC50", "setting": "[20]; read-out: LC50", "result": "> 100", "unit": "µM"}, {"measurement": "GI50", "setting": "[21]; KM12", "result": 0.409, "unit": "µM"}, {"measurement": "CC50", "setting": "[21]; KM12, read-out: LC50", "result": "> 100", "unit": "µM"}, {"measurement": "GI50", "setting": "[22]; HCT-15", "result": 0.455, "unit": "µM"}, {"measurement": "CC50", "setting": "[22]; HCT-15, read-out: LC50", "result": "> 100", "unit": "µM"}, {"measurement": "GI50", "setting": "[23]; SK-MEL-5", "result": 0.249, "unit": "µM"}, {"measurement": "CC50", "setting": "[23]; SK-MEL-5, read-out: LC50", "result": "> 100", "unit": "µM"}, {"measurement": "GI50", "setting": "[24]; CAKI-1", "result": 0.223, "unit": "µM"}, {"measurement": "CC50", "setting": "[24]; CAKI-1, read-out: LC50", "result": "> 100", "unit": "µM"}, {"measurement": "GI50", "setting": "[25]; SK-MEL-2", "result": 0.709, "unit": "µM"}, {"measurement": "CC50", "setting": "[25]; SK-MEL-2, read-out: LC50", "result": "> 100", "unit": "µM"}, {"measurement": "GI50", "setting": "[26]; NCI-H23", "result": 0.747, "unit": "µM"}, {"measurement": "CC50", "setting": "[26]; NCI-H23, read-out: LC50", "result": "> 100", "unit": "µM"}, {"measurement": "GI50", "setting": "[27]; SK-OV-3", "result": 0.576, "unit": "µM"}, {"measurement": "CC50", "setting": "[27]; SK-OV-3, read-out: LC50", "result": "> 100", "unit": "µM"}, {"measurement": "GI50", "setting": "[28]", "result": 1.19, "unit": "µM"}, {"measurement": "CC50", "setting": "[28]; read-out: LC50", "result": "> 100", "unit": "µM"}, {"measurement": "GI50", "setting": "[29]; UACC-257", "result": 12.8, "unit": "µM"}, {"measurement": "CC50", "setting": "[29]; UACC-257, read-out: LC50", "result": "> 100", "unit": "µM"}, {"measurement": "GI50", "setting": "[30]", "result": 0.661, "unit": "µM"}, {"measurement": "CC50", "setting": "[30]; read-out: LC50", "result": "> 100", "unit": "µM"}, {"measurement": "GI50", "setting": "[31]", "result": 0.903, "unit": "µM"}, {"measurement": "CC50", "setting": "[31]; read-out: LC50", "result": "> 100", "unit": "µM"}, {"measurement": "GI50", "setting": "[32]", "result": 0.715, "unit": "µM"}, {"measurement": "CC50", "setting": "[32]; read-out: LC50", "result": "> 100", "unit": "µM"}]}
